Legend:
OV90 = experiment: Cytotoxicity (MTT/DIMSCAN), OV90 cells; type: cell-based, human; details: Homo sapiens, OV-90; OV90, wild-type BRCA1 ovarian cancer cells; COH29 72 h; read-out: IC50, mean ± SEM
Experimental: (§1) All cell lines were acquired from the American Type Culture Collection (Manassas, Va., USA). Cells were maintained in RPMI 1640 medium (Mediatech) with 10% fetal bovine serum, 2 mM glutamine, and 100 U of penicillin and 100 μg of streptomycin per ml of medium (Sigma) at 37° C. in 5% CO2. To isolate HCC1437+BRCA1 cells, parental HCC1937 cells were transfected with pcDNA3.1 plasmid expressing full-length BRCA1 cDNA. Stable transfectant clones were selected and used for drug sensitivity assays. For stable transfection, cells at 30-40% confluence were incubated overnight with […] of plasmid DNA, using FUGENE® 6 transfectin reagent (Roche Molecular Biochemical, Monza, Italy) according to the manufacturer's instructions. Cells were then selected in puromycin (1 μg/ml) (Invitrogen life Technologies, La Jolla, Calif., USA.) After 20 to 30 days, viable puromycin-resistant colonies from HCC1937 transfections were expanded and screened. The clones that stably expressed […] and retained growth potential were assayed for BRCA1 expression by Western blot analysis. By Western blot analysis, we evaluated the restoration of BRCA1 expression in the puromycin-resistant cDNA/transfectant cells.
(§2) The MTT cytotoxicity assay was performed by incubating with MTT and monitoring the MTT formazan formed by viable cells with a microplate reader at a wavelength of 560 nm; the survival, ratio was determined using the formula: (Atest−Ablank)/(Acontrol−Ablank)×100%. The cytotoxicity was determined in 96-well plates using the semiautomatic fluorescence-based Digital Imaging Microscopy System (DIMSCAN). DIMSCAN uses digital imaging microscopy to quantify viable cells, which selectively accumulate FDA (fluorescein diacetate; Alfa Aesar, Ward Hill, Mass.). DIMSCAN is capable of measuring cytotoxicity over a 4 log dynamic range by quantifying total fluorescence per well (which is proportional to the number of viable cells) after elimination of the background fluorescence by digital thresholding and eosin Y (Mallinckrodt Baker, Center Valley, Pa.) quenching. Cells were seeded into 96-well plates in 100 μL of complete medium at 2,000 to 5,000 cells per well depending on cell line growth rate. After overnight incubation, test compound was added to each well at various concentrations in 50 μL of culture medium. […] Total fluorescence per well was then measured using DIMSCAN, and the results were expressed as the ratio of the fluorescence in treated wells to the fluorescence in untreated wells (survival fraction).

TOV112D = experiment: Cytotoxicity, TOV112D cells; type: cell-based, human; details: Homo sapiens, read-out: IC50, mean ± SEM
Experimental: as §1
The MTT cytotoxicity assay was performed by incubating with MTT and monitoring the MTT formazan formed by viable cells with a microplate reader at a wavelength of 560 nm; the survival, ratio was determined using the formula: (Atest−Ablank)/(Acontrol−Ablank)×100%. The cytotoxicity was determined in 96-well plates using the semiautomatic fluorescence-based Digital Imaging Microscopy System (DIMSCAN). DIMSCAN uses digital imaging microscopy to quantify viable cells, which selectively accumulate FDA (fluorescein diacetate; Alfa Aesar, Ward Hill, Mass.). DIMSCAN is capable of measuring cytotoxicity over a 4 log dynamic range by quantifying total fluorescence per well (which is proportional to the number of viable cells) after elimination of the background fluorescence by digital thresholding and eosin Y (Mallinckrodt Baker, Center Valley, Pa.) quenching. Cells were seeded into 96-well plates in 100 μL of complete medium at 2,000 to 5,000 cells per well depending on cell line growth rate. After overnight incubation, test compound was added to each well at various concentrations in 50 μL of culture medium. After incubation with the drugs for 96 hours at 37° C., FDA (final concentration: […]) and eosin Y [final concentration: 0.1% (w/v)] were added to each well and the cells were incubated for an additional 20 minutes at 37° C. Total fluorescence per well was then measured using DIMSCAN, and the results were expressed as the ratio of the fluorescence in treated wells to the fluorescence in untreated wells (survival fraction).

UWB1.289 + BRCA1 = experiment: Cytotoxicity, UWB1.289+BRCA1 cells; type: cell-based, human; details: Homo sapiens, UWB1289; UWB1.289 + BRCA1 (WT); COH29 72 h; read-out: IC50, mean ± SEM
Experimental: as §1, §2

HCC1937 = experiment: Cytotoxicity, HCC1937 cells; type: cell-based, human; details: Homo sapiens; HCC1937, triple negative, BRCA1 mutant; COH29 72 h
Experimental: as §1
The MTT cytotoxicity assay was performed by incubating with MTT and monitoring the MTT formazan formed by viable cells with a microplate reader at a wavelength of 560 nm; the survival, ratio was determined using the formula: (Atest−Ablank)/(Acontrol−Ablank)×100%. The cytotoxicity was determined in 96-well plates using the semiautomatic fluorescence-based Digital Imaging Microscopy System (DIMSCAN). DIMSCAN uses digital imaging microscopy to quantify viable cells, which selectively accumulate FDA (fluorescein diacetate; Alfa Aesar, Ward Hill, Mass.). DIMSCAN is capable of measuring cytotoxicity over a 4 log dynamic range by quantifying total fluorescence per well (which is proportional to the number of viable cells) after elimination of the background fluorescence by digital thresholding and eosin Y (Mallinckrodt Baker, Center Valley, Pa.) quenching. […]

[1] = test system: DNA damage checkpoint proteins (ATM, CHK1, CHK2, γ-H2AX); experiment: DNA damage checkpoint proteins by Western blot; type: cell-based, human
Experimental: For subcellular fractionation, cells were trypsinized and washed with cold PBS solution twice. After centrifugation at 1,200 g for 5 min, cells were incubated in buffer (50 mM HEPES, pH 7.5, 150 mM NaCl, 1 mM EDTA) containing 0.2% NONIDET™ P-40 (NP-40), supplemented with protease inhibitors (5 μg/ml each of pepstatin, leupeptin, and aprotinin) and phosphatase inhibitors on ice for 5 min. Following centrifugation at 1,000 g for 5 min, the supernatant was collected (i.e., cytoplasmic fraction) and pellets were washed with the same buffer twice. The washed samples were extracted for 40 min on ice with fractionation buffer containing 0.5% NP-40 for nuclear fraction. All the samples were sonicated and clarified by centrifugation at 16,000 g for 15 min. Protein concentrations of all fractions were determined with Bio-Rad Protein Assay (Bio-Rad Laboratories, Hercules, Calif.). Immunoblotting was performed as described previously (21,22). Briefly, equal amounts of boiled protein samples were subjected to SDS-polyacrylamide gel electrophoresis (PAGE) and transferred onto nitrocellulose membranes (Bio-Rad Laboratories). Membranes were blocked for 1 hour in 3% BSA in Tris buffered saline containing 0.05% Tween 20 (TBST) and incubated for 1 hour with primary antibody (1:500 or 1:1000) diluted in TBST containing 1% BSA. After two washes with TBST, membranes were incubated for 1 hour with horseradish peroxidase-conjugated secondary Abs (1:3000 dilution) at room temperature. The immunoblots were visualized on film with the West-Q chemi-luminescence kit (GenDEPOT, Barker, Tex.).

[2] = more potent than HU, ref (6); cited from earlier work

O=C(Nc1nc(-c2ccc(O)c(O)c2)c(-c2ccccc2)s1)c1ccc(O)c(O)c1 [COH29]
IC50 (OV90): 31.6 ± 3.35 µM
IC50 (TOV112D): 16 ± 2.08 µM
IC50 (UWB1.289 + BRCA1): 23.5 ± 2.38 µM
IC50 (HCC1937): 7.25 ± 0.64 µM
γ-H2AX level ([1]; MCF7 and MCF-7 p53−/− cells): increase in the γ-H2AX level
DNA damage checkpoint activation (phosphorylation of ATM, CHK1, CHK2) ([1]; MCF7 cells, wild-type p53): activated the DNA damage checkpoint
DNA damage checkpoint proteins (ATM, CHK1, CHK2) modification ([1]; MCF-7 p53−/− cells): similarly modified
potency relative to HU [2]: 20 fold

— patent US10201530B2, “Treatment of BRCA1-defective cancer or resistant cancers” (City of Hope, priority 2014, dated 2019)
